Test results from patent EP1560558B1, “USE OF 3-POSITION CYCLOSPORIN DERIVATIVES FOR HAIR GROWTH” (LG Household & Health Care Ltd., priority 2002, dated 2010).

system: mouse's back; assay: not given; conditions: comparative experiments on mouse's back, relative to minoxidil; cited from earlier work

In the case of cyclosporin, the “hair regrowth effect, times superior to minoxidil” value is listed as “about 100 times”.

system: Female C57BL/6 mice; assay: Test for hair growth promoting effect (hair regrowth on shaved back of mice, topical application); assay type: in vivo; conditions: female C57BL/6 mice 6 to 7 weeks, hair-removed back, 100 µl (conc. 0.1% w/v) once a day for 30 days, visual approach; vehicle control 40
Method: Test Example: Test for hair growth promoting effect of cyclosporin derivatives of the invention
Female C57BL/6 mice of ages 6 to 7 weeks were utilized. After removing hairs on the middle of the back with an electric shaver, the mice were weighed and randomly assigned to the test groups with an even distribution of weights. The mice were given one day for adaptation. […] The results were determined by visual approach, in terms of degrees of hair regrowth. With respect to respective hair-removed areas, rates of new hair growth were examined and compared.

Point of comparison: C=CCS[C@@H]1C(=O)N(C)[C@@H](CC(C)C)C(=O)N[C@@H](C(C)C)C(=O)N(C)[C@@H](CC(C)C)C(=O)N[C@@H](C)C(=O)N[C@H](C)C(=O)N(C)[C@@H](CC(C)C)C(=O)N(C)[C@@H](CC(C)C)C(=O)N(C)[C@@H](C(C)C)C(=O)N(C)[C@@H]([C@H](O)[C@H](C)C/C=C/C)C(=O)N[C@@H](CC)C(=O)N1C [Compound 4, [D-2-allylthio-sar^3] cyclosporin A], “Area rate of hair regrowth (%)” value 90%. Against it:
- C/C=C/C[C@@H](C)[C@@H](O)[C@H]1C(=O)N[C@@H](CC)C(=O)N(C)[C@H](Sc2ccc([N+](=O)[O-])cc2)C(=O)N(C)[C@@H](CC(C)C)C(=O)N[C@@H](C(C)C)C(=O)N(C)[C@@H](CC(C)C)C(=O)N[C@@H](C)C(=O)N[C@H](C)C(=O)N(C)[C@@H](CC(C)C)C(=O)N(C)[C@@H](CC(C)C)C(=O)N(C)[C@@H](C(C)C)C(=O)N1C [Compound 6, [D-2-(4-nitrophenyl)thio-sar^3] cyclosporin A] — lower, 89%
- [D-2-(dimethylthiocarbamyl)dithio-sar^3] cyclosporin A [Compound 7] — lower, 85%
- C/C=C/C[C@@H](C)[C@@H](O)[C@H]1C(=O)N[C@@H](CC)C(=O)N(C)[C@H](SCC)C(=O)N(C)[C@@H](CC(C)C)C(=O)N[C@@H](C(C)C)C(=O)N(C)[C@@H](CC(C)C)C(=O)N[C@@H](C)C(=O)N[C@H](C)C(=O)N(C)[C@@H](CC(C)C)C(=O)N(C)[C@@H](CC(C)C)C(=O)N(C)[C@@H](C(C)C)C(=O)N1C [Compound 1, [D-2-ethylthio-sar^3]cyclosporin A] — the same, 90%
- C/C=C/C[C@@H](C)[C@@H](O)[C@H]1C(=O)N[C@@H](CC)C(=O)N(C)[C@H](SCc2ccccc2)C(=O)N(C)[C@@H](CC(C)C)C(=O)N[C@@H](C(C)C)C(=O)N(C)[C@@H](CC(C)C)C(=O)N[C@@H](C)C(=O)N[C@H](C)C(=O)N(C)[C@@H](CC(C)C)C(=O)N(C)[C@@H](CC(C)C)C(=O)N(C)[C@@H](C(C)C)C(=O)N1C [Compound 5, [D-2-benzylthio-sar^3] cyclosporin A] — the same, 90%
- C/C=C/C[C@@H](C)[C@@H](O)[C@H]1C(=O)N[C@@H](CC)C(=O)N(C)[C@H](SC(C)C)C(=O)N(C)[C@@H](CC(C)C)C(=O)N[C@@H](C(C)C)C(=O)N(C)[C@@H](CC(C)C)C(=O)N[C@@H](C)C(=O)N[C@H](C)C(=O)N(C)[C@@H](CC(C)C)C(=O)N(C)[C@@H](CC(C)C)C(=O)N(C)[C@@H](C(C)C)C(=O)N1C [Compound 3, [D-2-isopropylthio-sarl^3] cyclosporin A] — lower, 85%
- C/C=C/C[C@@H](C)[C@@H](O)[C@H]1C(=O)N[C@@H](CC)C(=O)N(C)[C@H](SCCC)C(=O)N(C)[C@@H](CC(C)C)C(=O)N[C@@H](C(C)C)C(=O)N(C)[C@@H](CC(C)C)C(=O)N[C@@H](C)C(=O)N[C@H](C)C(=O)N(C)[C@@H](CC(C)C)C(=O)N(C)[C@@H](CC(C)C)C(=O)N(C)[C@@H](C(C)C)C(=O)N1C [Compound 2, [D-2-propylthio-sar^3] cyclosporin A] — higher, 92%
